The values below come from BindingDB's records for doi:10.1016/j.bmc.2011.12.062 (The Ohio State University College of Medicine, 2012).

As a reminder, the IC50 is the concentration that inhibits the measured activity by half. A high value points to a need for much substance.

The assay can be described thus: Displacement of thioflavin T from insulin amyloid fibrils by thioflavin-T fluorescent dye assay.
`CN(C)c1ccc(/C=C/c2sc3ccccc3[n+]2Cc2ccccc2-c2ccccc2)cc1` had an IC50 of 80 nM. This counts as double-digit nanomolar.
As to `CN(C)c1ccc(/C=C/c2sc3ccccc3[n+]2Cc2ccc(F)cc2)cc1`, the IC50 worked out at 42 nM.
As for `CCCC[n+]1c(/C=C/c2ccc(N(C)C)cc2)sc2ccccc21`, the IC50 amounted to 27 nM.
Under `Nc1ccc(/N=N/c2nc3ccccc3s2)c2ccccc12` stands 130 nM.
The compound `CCCCCCC[n+]1c(/C=C/c2ccc(N(CCCC)CCCC)cc2)sc2ccccc21` yielded an IC50 of 90 nM.
The compound `CN(C)c1ccc(/C=C/c2sc3ccccc3[n+]2Cc2ccccc2)cc1` yielded a 50% inhibitory concentration (IC50) of 12 nM.
For `CN(C)c1ccc(/C=C/c2sc3ccc(Cl)cc3[n+]2C)cc1`, the IC50 amounted to 5.2 nM.
Under `CCCCCCC[n+]1c(/C=C/c2ccc(N(CC)CC)cc2)sc2ccccc21` stands 120 nM; under `CCCCCCC[n+]1c(/C=C/c2ccc(N(C)C)c3ccccc23)sc2ccccc21`, 40 nM.
Under `CN(C)c1ccc(/C=C/c2sc3cc([N+](=O)[O-])ccc3[n+]2C)cc1` stands 12 nM; under `Cc1ccc2sc(/C=C/c3ccc(N(C)C)cc3)[n+](C)c2c1`, 7.5 nM; under `COc1ccc2nc(/N=N/c3ccc(N(C)C)cc3)sc2c1`, 700 nM.
For the compound `CN(C)c1ccc(/C=C/c2sc3ccccc3[n+]2Cc2ccc3ccccc3c2)cc1`, the IC50 came to 13 nM.
The compound `CN(C)c1ccc(/N=N/c2nc3ccccc3s2)cc1` yielded an IC50 of 1200 nM.
As for `CC[n+]1c(/C=C/c2ccc(N(C)C)cc2)sc2ccccc21`, the IC50 is 6 nM.
Under `COc1ccc2nc(/N=N/c3ccc(N(C)C)c4ccccc34)sc2c1` stands 340 nM.
As for `COc1ccc2c(c1)sc(/N=N/c1ccc(N(C)C)cc1)[n+]2C`, the IC50 was 10 nM. This IC50 is about 34-fold lower than that of the compound before.
Compound `CN(C)c1ccc(/C=C/c2sc3ccccc3[n+]2CCCOCc2ccccc2)cc1` registered an IC50 of 52 nM.
Under `Cc1ccc2c(c1)sc(/C=C/c1ccc(N(C)C)cc1)[n+]2Cc1ccccc1` stands 50 nM; under `CCCCCCC[n+]1c(/C=C/c2ccc(-n3cccc3)cc2)sc2ccccc21`, 42 nM.
`CN(C)c1ccc(/C=C/c2sc3ccccc3[n+]2Cc2ccc(-c3ccccc3)cc2)cc1`: the IC50 is 34 nM. This IC50 and that of the compound before are within 1.5-fold of each other.
Turning to `CN(C)c1ccc(/C=C/c2sc3ccccc3[n+]2CCCCCOc2ccccc2)cc1`, the IC50 was determined as 80 nM.
Regarding `CN(C)c1ccc(/C=C/c2nc3cc(Cl)ccc3s2)cc1`, the IC50 was more than 100000 nM.
As to `CN(C)c1ccc(/C=C/c2sc3c(Cc4ccccc4)c(Cc4ccccc4)ccc3[n+]2C)cc1`, the half-maximal inhibitory concentration (IC50) worked out at 41 nM.
Under `CN(C)c1ccc(/C=C/c2sc3ccc(Cc4ccccc4)c(Cc4ccccc4)c3[n+]2C)cc1` stands 41 nM; under `CN(C)c1ccc(/N=N/c2sc3ccccc3[n+]2C)cc1`, 60 nM; under `CN(C)c1ccc(/C=C/c2sc3ccc(F)cc3[n+]2Cc2ccccc2)cc1`, 32 nM.
Under `CN(C)c1ccc(/C=C/c2sc3ccccc3[n+]2CCCC(c2ccccc2)c2ccccc2)cc1` stands 210 nM; under `CCCCCCC[n+]1c(/C=C/c2ccc(N(C)C)cc2)sc2ccccc21`, 83 nM; under `CCCCCCC[n+]1c(/C=C/c2ccc(N(C)C)cc2)sc2cc(OC)ccc21`, 40 nM.
With `Cc1ccc2c(c1)sc(/C=C/c1ccc(N(C)C)cc1)[n+]2C`, the IC50 was 6 nM. Against the preceding compound, the IC50 is about 6.7-fold lower.
Compound `COc1ccc2c(c1)sc(/C=C/c1ccc(N(C)C)c3ccccc13)[n+]2C` had an IC50 of 26 nM.
As to `CN(C)c1ccc(/C=C/c2sc3ccccc3[n+]2C/C=C/c2ccccc2)cc1`, the IC50 turned out to be 80 nM.
Under `CN(C)c1ccc(/N=N/c2nc3ccc(Cl)cc3s2)cc1` stands 1300 nM; under `CN(C)c1ccc(/C=C/c2sc3ccccc3[n+]2Cc2cccc(Oc3ccccc3)c2)cc1`, 180 nM.
